Assay results published in patent publication US20130129713A1, “METHOD OF ANTIGEN LOADING FOR IMMUNOTHERAPY” (IEO - ISTITUTO EUROPEO DI ONCOLOGIA S.R.L., priority 2010, published 2013).

Columns and labels:
[1] = system: Connexin (Cx) 43 expression in B16 cells; experiment: Cx43 expression in B16 cells after infection or PAMP/IFN-g treatment (immunofluorescence, Western blot); format: cell-based, murine
Description: Single bacterial colonies were grown overnight and restarted the next day to reach an A600 nm=0.6 corresponding to 0.6×10^9 CFU/mL. Murine and human melanoma cells were incubated with bacteria for 2 h, at a ratio of 1:50 (cell/bacteria), in the appropriate medium without antibiotics. Cells were washed with PBS and incubated in medium supplemented with 50 μg/mL gentamicin for 12 or 24 h in order to kill extracellular bacteria, with or without IFN-g(100 U/ml).
B16 cells and DC1 DCs were plated in 6-well plates (2×10^5 cells/well) and grown for 18 h. Cells were incubated with PAMPs in complete medium with or without IFN-g(100 U/ml) for 24 hours. The PAMPs used were LPS (1 μg/ml, Sigma), flagellin (0.1 μg/ml, Alexis) and LTA (10 μg/ml, Sigma).
24 hour after infection or treatment with PAMPs, melanoma cells were scraped in ELB buffer (250 mM NaCl, 0.5% Nonidet P-40, 50 mM HEPES [pH 7.0], 5 mM EDTA) containing 1 mM dithiothreitol, 0.5 mM phenylmethylsulfonyl fluoride, and protease inhibitors. Cell lysates were run on SDS page and transferred on Immobilon PVDF membranes. Membranes were probed with a polyclonal rabbit-anti-Cx43 antibody (Sigma) or with a monoclonal mouse-anti-Cx43 antibody (Zymed) or with mouse-anti-vinculin antibody (Sigma) overnight at 4° C. and incubated with anti-mouse horseradish peroxidase-conjugated IgG (Calbiochem) or with anti-rabbit horseradish peroxidase-conjugated IgG (BioRad) antibodies for 1 h. Visualization was carried out with ECL (GE Healthcare). Bands were quantified by densitometry using NIH Image-based software Scion Image (Scion Corporation).
B16 cells were plated onto coverslips (5×10^4 cells/coverslip) and grown for 18 h. Cells were infected with Salmonella. After 24 hours the cells were fixed in 4% (w/v) paraformaldehyde in PBS for 15 min. Blocking and permeabilization were carried out incubating the cells in PBS, 3% (w/v) bovine serum albumin (BSA) and 0.1% (w/v) Triton X-100 for 20 min. The cells were then stained with polyclonal rabbit-anti-Cx43 primary antibody (Sigma, 1:2000) and with an anti-rabbit-Cy3-conjugated secondary antibody (Jackson ImmunoResearch laboratories, 1:400). Cell nuclei were stained with 4′,6-diamidino-2-phenylindole. Confocal microscopy was carried out using a Leica TCS-SP2 (Leica Microsystem).

B16-OVA cells / DCs = experiment: In vitro cross-presentation assay (K^bOVA on CD11c+ DCs); format: cell-based, murine
Description: B16 and B16-OVA cells alone or together with DCs were treated or not with Salmonella and 24 hours later were stained with 5 μM of Carboxyfluorescein Succinimidyl ester (CF SE) for 20 minutes at 37° C. in the dark and then washed with cold PBS. Where stated, B16 and B16-OVA cells were treated with 10 μM Lactacystin (Sigma) overnight. […] After 24 hours cross-presentation of OVA peptide by DCs was analyzed by cytofluorimetry on CD11c^+ cells using an antibody that recognizes the OVA SIINFEKL peptide in association with MHC I (anti K^bOVA, 25-D1.16).

[2] = system: GJs dependent intercellular communication, Mel-04 to human MoDC; experiment: FACS dye transfer assay, human cells: Mel-04 to MoDC; format: cell-based; settings: co-culture in presence of heptanol (3.5 mM)
Description: FIG. 18. Salmonella infection upregulates GJs dependent intercellular communication in a melanoma-MoDC coculture model system. Human monocyte-derived DCs (MoDCs) were labeled with DDAO and then extensively washed.

[3] = system: GJs-dependent intercellular communication, SK-Mel-24 to Mo-DC; format: cell-based, human
[4] = system: SK-Mel24 and other target cell lines; experiment: CTL generation and cytotoxicity (DELFIA cytotoxicity kit); format: cell-based, human; settings: Mo-DC/SL-infected SK-Mel24 coculture in presence of Heptanol (3,5 mM)
Description: FIG. 24. SL-infected SK-Mel-24 loaded MoDC generate CTLs able to recognize epitopes shared among melanoma cells. CTL generated as described in materials and methods were tested for their antigen-specific cytotoxicity using DELFIA cytotoxicity kit. Target cells were: SK-Mel24, melanoma cell line, HLA negative cell line, HT29 (colon carcinoma).
Mo-DCs obtained from the same donor were loaded with SL-infected SK-Mel24 (SL-SK), and cultured, with purified CD8^+ T cells. Proliferating cells were expanded for 7-10 days in complete medium supplemented with 20 U/ml of rhIL-2. Cytotoxic properties of generated CTLs were tested against selected targets.
Purified CD8 T cells by magnetic cell sorting were cultured with MoDCs previously cocultured with infected or non-infected Sk-Mel24 in the presence or absence of 3,5 mM heptanol. After 24-48h cultures were supplemented with 20 U/ml of rhIL-2 and after 7-10 days CTLs were either subjected to a second round of stimulation or assayed for their cytotoxic activity. Melanoma specific cytotoxicity was measured by using DELFIA cytotoxicity Kit (Perkin Elmer) and lysosomal-associated membrane protein-1 (CD107a) mobilization was performed by using BD FastImmune CD107a reagent (BD Bioscience), according to manufacturer's instructions.

[5] = system: GJs dependent intercellular communication between SK-Mel-24 cells; experiment: Dye transfer between SK-Mel-24 melanoma cells; format: cell-based, human; settings: in the presence of heptanol
Description: FIG. 20. Salmonella infection up-regulates GJs dependent intercellular communication in SK-Mel-24 melanoma cell line. In this experiment the dye transfer was performed from melanoma to melanoma cells (SK-Mel-24). The increase in dye transfer from Salmonella infected to non-infected SK-Mel-24 cells is clear as compared to that from non-infected to non-infected cells. The right panel represents the same experiment performed in the presence of Heptanol, an inhibitor of GJ dependent intercellular communication. Data are expressed as percentage of SK-Mel-24 calcein positive cells.

[6] = system: gap junctions between B16 cells and DCs; experiment: FACS dye transfer assay, murine cells (calcein-AM from B16 to DDAO-labeled DCs); settings: co-culture in presence of heptanol (3.5 mM)
Description: B16 cells were infected or not with Salmonella, pulsed with the GJ-diffusible dye Calcein-AM and incubated with DDAO-labeled DCs, in the presence or absence of heptanol. One h later the % of cells double positive for DDAO and Calcein-AM, representing the DCs that received the dye from tumor cells, was evaluated by FACS (Black bars).
FACS assay murine cells. DCs were labeled with 10 μM of the dye 7-hydroxy-9H(I,3-dichloro-9,9-dimethylacridin-2-one) (DDAO, Molecular Probes) for 15 minutes at R.T. in the dark and then extensively washed with PBS. B16 cells were infected or not with Salmonella and after 24 hours were labeled with 0.5 μM calcein-acetoxymethylester (calcein-AM; Molecular Probes) in serum-free medium for 30 minutes at 37° C. and then co-cultured with DCs at a ratio of 2:1. Calcein transfer between tumor cells and DCs was evaluated by cytofluorimetry. The co-culture of B16/DCs was carried out in the presence or absence of (3.5 mM) Heptanol (Sigma).

[7] = B16 cells incubated with purified bacterial components, Western blot 24 h

Molecule: flagellin
- Cx43 expression [1, 7]: same upregulation of Cx43

Molecule: lypopolysaccharide [LPS]
- Cx43 expression [1, 7]: same upregulation of Cx43

Molecule: lipoteichoic acid [LTA]
- Cx43 expression [1, 7]: same upregulation of Cx43

Molecule: CC(=O)N[C@@H](CSC(=O)[C@]1([C@@H](O)C(C)C)NC(=O)[C@H](C)[C@@H]1O)C(=O)O [lactacystin]
- DC surface exposure of the K^b-OVA complex (B16-OVA cells / DCs; B16-OVA pretreated with 10 μM Lactacystin overnight): prevented the DC surface exposure of the K^b-OVA complex

Molecule: CCCCCCCO [heptanol]
- calcein dye transfer from Mel-04 to MoDC [2]: capable of inhibiting the transfer
- calcein transfer from SK-Mel-24 to Mo-DC [3]: most of the calcein transfer was inhibited
- cytotoxicity of generated CTLs against the specific target [4]: unable to lyse the specific target
- presentation of OVA peptide (K^bOVA) by DCs (B16-OVA cells / DCs; infected B16-OVA + mature DCs 24 h, Heptanol (3.5 mM)): completely abolished the presentation of the peptide
- dye transfer from infected to non infected SK-Mel-24 cells [5]: inhibited
- transfer of calcein from B16 cells to DCs [6]: completely abolished the transfer of calcein

B1: IFN-g: inflammatory cytokine gamma-IFN (protein, UniProt P01579 24-161, looked up)
Interferon gamma: QDPYVKEAENLKKYFNAGHSDVADNGTLFLGILKNWKEESDRKIMQSQIVSFYFKLFKNFKDDQSIQKSVETIKEDMNVKFFNSNKKKRDDFEKLTNYSVTDLNVQRKAIHELIQVMAELSPAAKTGKRKRSQMLFRG
- Cx43 expression ([1]; B16 cells, IFN-g alone (100 U/ml)): upregulated Cx43
- Cx43 expression, combination effect ([1]; B16 cells, IFN-g together with Salmonella or bacterial components): acted in synergy with the bacterial components
